Results reported in US8772504B2, “Substituted benzoxazole, benzimidazole, oxazolopyridine and imidazopyridine derivatives as gamma secretase modulators” (Janssen Pharmaceuticals, Inc., priority 2009, dated 2014).

Assays:
Aβtotal [1] = assay: Screening for γ-secretase-modulating activity, Method 2: Aβtotal Alphalisa on SKNBE2 cell supernatant; format: cell-based; conditions: Method 2, Table 3c, SKNBE2 cells carrying APP 695 wild type, overnight incubation
Procedure, shortened: (§1)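 SKNBE2 cells expressing wild-type APP695, plated at 10^4 cells/well with compound at several concentrations and incubated overnight at 37° C. Aβ42 (C-terminal capture, N-terminal biotinylated detection) and Aβtotal (N-terminal/4G8 pair) measured in supernatant by AlphaLISA. IC50 from 4-parameter fit of percent of compound-free control.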

Aβ42 [2] = assay: Screening for γ-secretase-modulating activity, Method 2: Aβ42 Alphalisa on SKNBE2 cell supernatant; format: cell-based; conditions: Method 2, Table 3c, SKNBE2 cells carrying APP 695 wild type, overnight incubation
Procedure, shortened: as §1

Aβtotal [3] = assay: Screening for γ-secretase-modulating activity, Method 1: Aβtotal sandwich ELISA on SKNBE2 cell media; format: cell-based; conditions: SKNBE2 cells carrying APP 695 wild type
Procedure, shortened: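 SKNBE2 cells expressing wild-type APP 695 were treated with compound for 18 hours. Aβtotal in the medium was measured by sandwich ELISA (6E10 capture, biotinylated 4G8 detection, fluorogenic peroxidase read-out). IC50 came from a 4-parameter fit of % inhibition with top/bottom fixed at 100/0 and Hill slope 1, or as averaged IC50 from % of untreated control.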

Aβ42 [4] = assay: Screening for γ-secretase-modulating activity, Method 1: Aβ42 sandwich ELISA on SKNBE2 cell media; format: cell-based; conditions: SKNBE2 cells carrying APP 695 wild type
Procedure, shortened: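 SKNBE2 cells expressing wild-type APP695 were treated with compound for 18 h in Ultraculture/1% glutamine. Secreted Aβ42 was quantified by sandwich ELISA (C-terminal capture, biotinylated 3D6, TMB, 450 nm), with WST-1 used as a toxicity check. IC50 was derived from 4-parameter fits of % inhibition or % of untreated control.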

[5] = Homo sapiens, Table 3a, 18 hours, XLfit, top/bottom fixed to 100 and 0, hill slope 1
[6] = Homo sapiens, Table 3b, non-linear regression of % of control, averaged IC50 values
[7] = Table 3a, 18 hours, XLfit, top/bottom fixed to 100 and 0, hill slope 1
[8] = Table 3b, non-linear regression of % of control, averaged IC50 values

melting point | IC50 (Aβtotal [1]; Homo sapiens) | IC50 (Aβ42 [2]; Homo sapiens) | IC50 (Aβtotal [3]; [5]) | IC50 (Aβtotal [3]; [6]) | IC50 (Aβ42 [4]; [5]) | IC50 (Aβ42 [4]; [6]) | IC50 (Aβtotal [1]) | IC50 (Aβ42 [2]) | IC50 (Aβtotal [3]; [7]) | IC50 (Aβtotal [3]; [8]) | IC50 (Aβ42 [4]; [7]) | IC50 (Aβ42 [4]; [8]) | SMILES
 |  |  |  |  |  |  | > 10 µM | 0.288 µM | > 3 µM | > 3 µM | 0.096 µM | 0.089 µM | Cc1ncn(-c2ccc(Nc3cccc4c3nc(-c3ccc(F)cc3)n4C(C)C)cc2)n1.Cl.Cl [Compound 73]
 |  |  |  |  |  |  | 7.76 µM | 0.045 µM | > 3 µM | > 3 µM | 0.019 µM | 0.019 µM | COc1cc(Nc2cccc3c2nc(-c2ccc(F)cc2)n3C(C)C)ccc1-n1cnc(C)n1.Cl.Cl [Compound 75]
 |  |  |  |  |  |  | > 10 µM | 0.072 µM | > 3 µM | > 10 µM | 0.048 µM | 0.046 µM | Cc1ncn(-c2ccc(Nc3cccc4c3nc(-c3ccc(F)cc3)n4C(C)C)cn2)n1 [Compound 76]
 |  |  |  |  |  |  | 4.27 µM | 0.178 µM | > 10 µM | > 10 µM | 0.129 µM | 0.129 µM | COc1cc(Nc2nccc3c2nc(-c2ccc(F)cc2)n3C)ccc1-n1cnc(C)n1 [Compound 92]
 | > 10 µM | 0.02 µM | > 3 µM | 1.17 µM | 0.004 µM | 0.018 µM |  |  |  |  |  |  | COc1cc(Nc2cc(C(C)C)nc3c2nc(-c2ccc(F)cc2)n3C)ccc1-n1cnc(C)n1 [Compound 110]
186.8 °C | 3.89 µM | 0.021 µM | > 3 µM | > 3 µM | 0.01 µM | 0.054 µM |  |  |  |  |  |  | COc1cc(-c2nc3c(Nc4ccc(-n5cnc(C)n5)c(OC)c4)nccc3n2C)ccc1Cl [Compound 114]
 |  |  |  |  |  |  | > 10 µM | 0.002 µM | > 10 µM |  | 0.002 µM |  | COc1nc(Nc2cc(F)cc3c2nc(-c2ccc(F)cc2)n3C)ccc1-n1cnc(C)c1 [Compound 115]
 |  |  |  |  |  |  | > 10 µM | 0.129 µM |  | > 3 µM |  | 0.069 µM | COc1cc(Nc2nccc3c2nc(-c2ccccc2C(F)(F)F)n3C)ccc1-n1cnc(C)n1 [Compound 130]
 |  |  |  |  |  |  | > 10 µM | 0.046 µM |  | > 3 µM |  | 0.032 µM | COc1cc(Nc2nc(C)cc3c2nc(-c2ccc(F)cc2)n3C)ccc1-n1cnc(C)n1 [Compound 164]

Further lines, the molecule ahead of its results:

SMILES | melting point | IC50 (Aβtotal [1]; Homo sapiens) | IC50 (Aβ42 [2]; Homo sapiens) | IC50 (Aβtotal [3]; [5]) | IC50 (Aβtotal [3]; [6]) | IC50 (Aβ42 [4]; [5]) | IC50 (Aβ42 [4]; [6]) | IC50 (Aβtotal [1]) | IC50 (Aβ42 [2]) | IC50 (Aβtotal [3]; [7]) | IC50 (Aβtotal [3]; [8]) | IC50 (Aβ42 [4]; [7]) | IC50 (Aβ42 [4]; [8])
COc1cc(Nc2cccc3c2nc(-c2ccc(F)cc2)n3C)ccc1-n1cnc(C)c1 [Compound 1] | 130.9 °C | 0.59 µM | 0.016 µM | > 1 µM | 13.5 µM | 0.022 µM | 0.021 µM |  |  |  |  |  | 
COc1cc(Nc2cccc3c2nc(-c2ccc(F)cc2)n3C)ccc1-n1cnc(C)n1 [Compound 4] | 185.2 °C | > 10 µM | 0.027 µM | > 3 µM | > 3 µM | 0.023 µM | 0.022 µM |  |  |  |  |  | 
COc1cc(Nc2nccc3c2nc(-c2ccc(F)cc2)n3C)ccc1-n1cnc(C)c1 [Compound 8] |  | > 10 µM | 0.017 µM | > 3 µM | > 3 µM | 0.022 µM | 0.022 µM |  |  |  |  |  | 
COc1nc(Nc2cccc3c2nc(-c2ccc(F)cc2)n3C)ccc1-n1cnc(C)c1 [Compound 15] |  | 7.94 µM | 0.006 µM | > 3 µM | > 3 µM | 0.006 µM | 0.008 µM |  |  |  |  |  | 
CCn1c(CC2CC2)nc2c(Nc3ccc(-n4cnc(C)c4)c(OC)c3)cccc21 [Compound 36] |  |  |  |  |  |  |  | 7.41 µM | 0.078 µM | > 3 µM | > 3 µM | 0.031 µM | 0.028 µM
COc1cc(Nc2cccc3c2nc(Oc2ccccc2)n3C)ccc1-n1cnc(C)c1 [Compound 61] |  |  |  |  |  |  |  | 8.51 µM | 0.141 µM | > 3 µM | > 3 µM | 0.063 µM | 0.059 µM
Cc1cn(-c2ccc(Nc3cccc4c3nc(-c3ccc(F)cc3)n4C)cc2F)cn1 [Compound 67] |  |  |  |  |  |  |  | > 10 µM | 0.036 µM | > 3 µM | > 3 µM | 0.012 µM | 0.008 µM
